Test results from US20080306284A1, “Lipase Inhibitors” (priority 2004, published 2008).

Target: T1, porcine pancreatic lipase (Sus scrofa, UniProt P00591)
T1 construct: purchased Sigma
T1 sequence (P00591 1-450): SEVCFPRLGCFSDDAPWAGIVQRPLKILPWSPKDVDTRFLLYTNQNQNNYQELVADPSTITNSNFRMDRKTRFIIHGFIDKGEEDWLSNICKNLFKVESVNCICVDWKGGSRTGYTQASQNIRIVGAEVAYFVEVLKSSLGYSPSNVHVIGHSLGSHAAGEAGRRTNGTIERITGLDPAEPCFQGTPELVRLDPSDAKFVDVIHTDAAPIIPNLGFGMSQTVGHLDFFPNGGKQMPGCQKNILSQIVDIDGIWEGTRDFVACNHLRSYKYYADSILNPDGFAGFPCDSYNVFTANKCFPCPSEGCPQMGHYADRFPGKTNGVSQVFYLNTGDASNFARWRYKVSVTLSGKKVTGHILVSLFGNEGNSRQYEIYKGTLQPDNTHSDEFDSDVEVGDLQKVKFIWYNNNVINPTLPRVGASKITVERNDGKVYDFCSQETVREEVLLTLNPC
Test: Lipase inhibitory activity assay (4-MUO substrate, fluorescence)
Format: biochemical
Settings: method of Example 1
Experimental: A lipase activity assay was performed by using the oleate ester of fluorescent 4-methylumbelliferone (4-MUO) as a substrate to measure the fluorescence of 4-methylumbelliferone produced by reaction.
The buffer used for the assay was 13 mM Tris-HCl (pH 8.0) containing 150 mM NaCl, 1.36 mM CaCl2. The enzyme assay was performed using a 0.1 M solution of the substrate 4-MUO (Sigma) in DMSO diluted 1:1000 in said buffer and a solution of porcine pancreatic lipase (Sigma) prepared at 400 U/ml also in said buffer.
An enzymatic reaction was started by adding 25 μl of the lipase/buffer solution after 50 μl of the 4-MUO/buffer solution and 25 μl of distilled water (or an aqueous solution of each sample) were added and mixed in a 96-well microplate at 25° C. After the reaction was performed for 30 minutes, the reaction was stopped by adding 100 μl of a 0.1 M citrate buffer (pH 4.2) and the fluorescence of 4-methylumbelliferone produced by the reaction (excitation 355 nm, emission 460 nm) was measured using a fluorescence plate reader (Fluoroskan Asent CF from Labsystems).
The inhibitory activity of each test sample was determined as IC50(μM), i.e. the amount of the sample giving 50% inhibition of the activity of the control (distilled water).

In the case of “(−)-epigallocatechin 3-O-gallate [(−)-epigallocatechin 3-O-gallate (4), reference compound]”, the “lipase inhibitory activity (in words)” value is reported as “strongest activity among the major catechins”.

Same assay, conditions: porcine pancreatic lipase, 4-MUO substrate, 25° C., 30 minutes, pH 8.0

Point of comparison: “(−)-epicatechin 3-O-gallate [(−)-epicatechin 3-O-gallate (2), reference compound]”, IC50 271 nM. Against it:
- Oc1cc(O)c2c(c1)OC(c1ccc(O)c(O)c1)C(O)C2 (single isomer, unassigned; (+)) [(+)-catechin (5), (+)-catechin, reference compound] — higher, > 690000 nM
- Oc1cc(O)c2c(c1)O[C@H](c1ccc(O)c(O)c1)[C@@H](O)[C@@H]2c1c(O)cc(O)c2c1O[C@H](c1cc(O)c(O)c(O)c1)[C@H](O)C2 [(+)-catechin (4α − 8) (−)-epigallocatechin] — 29-fold higher, 7910 nM
- O=C(O[C@@H]1Cc2c(O)cc(O)c([C@@H]3c4c(O)cc(O)cc4O[C@H](c4ccc(O)c(O)c4)[C@H]3O)c2O[C@@H]1c1cc(O)c(O)c(O)c1)c1cc(O)c(O)c(O)c1 [(+)-catechin (α + 8) (−)-epigallocatechin 3-O-gallate] — 1.6-fold lower, 174 nM
- Oc1cc(O)c2c(c1)O[C@H](c1cc(O)c(O)c(O)c1)[C@@H](O)[C@@H]2c1c(O)cc(O)c2c1O[C@H](c1ccc(O)c(O)c1)[C@H](O)C2 [(+)-gallocatechin (4α − 8) (−)-epicatechin] — 11-fold higher, 2860 nM
- Oc1cc(O)c2c(c1)O[C@H](c1cc(O)c(O)c(O)c1)[C@@H](O)C2 [(+)-gallocatechin (7), (+)-gallocatechin, reference compound] — higher, > 163000 nM
- O=C(O[C@@H]1Cc2c(O)cc(O)cc2O[C@H]1c1ccc(O)c(O)c1)c1cc(O)c(O)c(O)c1 [(−)-catechin 3-O-gallate (6), (−)-catechin 3-O-gallate, reference compound] — 3.1-fold higher, 846 nM
- O=C(O[C@@H]1[C@@H](c2c(O)cc(O)c3c2O[C@H](c2cc(O)c(O)c(O)c2)[C@H](OC(=O)c2cc(O)c(O)c(O)c2)C3)c2c(O)cc(O)cc2O[C@@H]1c1ccc(O)c(O)c1)c1cc(O)c(O)c(O)c1 [(−)-epicatechin 3-O-gallate (4β − 8) (−)-epigallocatechin 3-O-gallate] — 3.1-fold higher, 846 nM
- Oc1cc(O)c2c(c1)O[C@H](c1ccc(O)c(O)c1)[C@H](O)C2 [(−)-epicatechin (1), (−)-epicatechin, reference compound] — higher, > 21600 nM
- O=C(O[C@@H]1Cc2c(O)cc(O)c([C@H]3c4c(O)cc(O)cc4O[C@H](c4ccc(O)c(O)c4)[C@@H]3O)c2O[C@@H]1c1cc(O)c(O)c(O)c1)c1cc(O)c(O)c(O)c1 [(−)-epicatechin (4β − 8) (−)-epigallocatechin 3-O-gallate] — 1.8-fold lower, 147 nM
- O=C(O[C@@H]1[C@@H](c2c(O)cc(O)c3c2O[C@H](c2ccc(O)c(O)c2)[C@H](OC(=O)c2cc(O)c(O)c(O)c2)C3)c2c(O)cc(O)cc2O[C@@H]1c1cc(O)c(O)c(O)c1)c1cc(O)c(O)c(O)c1 [(−)-epigallocatechin 3-O-gallate (4β − 8) (−)-epicatechin 3-O-gallate] — 2.3-fold higher, 612 nM
- Oc1cc(O)c2c(c1)O[C@H](c1cc(O)c(O)c(O)c1)[C@H](O)C2 [(−)-epigallocatechin (3), (−)-epigallocatechin, reference compound] — higher, > 20400 nM
- O=C(O[C@@H]1Cc2c(O)cc(O)c([C@H]3c4c(O)cc(O)cc4O[C@H](c4cc(O)c(O)c(O)c4)[C@@H]3O)c2O[C@@H]1c1ccc(O)c(O)c1)c1cc(O)c(O)c(O)c1 [(−)-epigallocatechin (4β − 8) (−)-epicatechin 3-O-gallate] — 3.4-fold higher, 913 nM
- O=C(O[C@@H]1Cc2c(O)cc(O)cc2O[C@H]1c1cc(O)c(O)c(O)c1)c1cc(O)c(O)c(O)c1 [(−)-gallocatechin 3-O-gallate (8), (−)-gallocatechin 3-O-gallate, reference compound] — within 1.5-fold, 349 nM
- Oc1cc(O)c2c(c1)O[C@H](c1ccc(O)c(O)c1)[C@H](O)[C@H]2c1c(O)cc(O)c2c1O[C@H](c1ccc(O)c(O)c1)[C@H](O)C2 [procyanidin B-2 (9), procyanidin B-2] — 29-fold higher, 7960 nM
- Oc1cc(O)c2c(c1)O[C@H](c1ccc(O)c(O)c1)[C@@H](O)[C@@H]2c1c(O)cc(O)c2c1O[C@H](c1ccc(O)c(O)c1)[C@@H](O)C2 [procyanidin B-3 (10), procyanidin B-3] — 11-fold higher, 2940 nM
- O=C(O[C@@H]1Cc2c(O)cc3c(c2O[C@@H]1c1cc(O)c(O)c(O)c1)[C@H]1c2c(O)cc(O)cc2O[C@@](c2cc(O)c(O)c(O)c2)(O3)[C@@H]1O)c1cc(O)c(O)c(O)c1 [prodelphinidin A-2 3′-O-gallate (11), prodelphinidin A-2 3′-O-gallate] — 1.6-fold lower, 171 nM
- O=C(O[C@@H]1[C@@H](c2c(O)cc(O)c3c2O[C@H](c2cc(O)c(O)c(O)c2)[C@H](OC(=O)c2cc(O)c(O)c(O)c2)C3)c2c(O)cc(O)cc2O[C@@H]1c1cc(O)c(O)c(O)c1)c1cc(O)c(O)c(O)c1 [prodelphinidin B-2 3,3′-di-O-gallate] — 2.5-fold lower, 107 nM
- O=C(OC1Cc2c(O)cc(O)c(C3c4c(O)cc(O)cc4OC(c4cc(O)c(O)c(O)c4)C3O)c2OC1c1cc(O)c(O)c(O)c1)c1cc(O)c(O)c(O)c1 (stereo not drawn) [prodelphinidin B-2 3′-O-gallate (13), prodelphinidin B-2 3′-O-gallate] — 7.3-fold higher, 1970 nM
- Oc1cc(O)c2c(c1)O[C@H](c1cc(O)c(O)c(O)c1)[C@H](O)[C@H]2c1c(O)cc(O)c2c1O[C@H](c1cc(O)c(O)c(O)c1)[C@H](O)C2 [prodelphinidin B-2 (12), prodelphinidin B-2] — 11-fold higher, 2950 nM
- O=C(O[C@@H]1Cc2c(O)cc(O)c([C@@H]3c4c(O)cc(O)cc4O[C@H](c4cc(O)c(O)c(O)c4)[C@H]3O)c2O[C@@H]1c1cc(O)c(O)c(O)c1)c1cc(O)c(O)c(O)c1 [prodelphinidin B-4 3′-O-gallate (16), prodelphinidin B-4 3′-O-gallate] — within 1.5-fold, 223 nM
- Oc1cc(O)c2c(c1)O[C@H](c1cc(O)c(O)c(O)c1)[C@@H](O)[C@@H]2c1c(O)cc(O)c2c1O[C@H](c1cc(O)c(O)c(O)c1)[C@H](O)C2 [prodelphinidin B-4 (15), prodelphinidin B-4] — 23-fold higher, 6230 nM
- (−)-epigallocatechin 3-O-gallate [(−)-epigallocatechin 3-O-gallate (4), reference compound] — within 1.5-fold, 284 nM
- prodelphinidin B-5 3,3′-di-O-gallate — 2.1-fold higher, 558 nM

Test system: not given
Test: not given
Settings: reported in the literature; cited from earlier work

In the case of `OC1(c2ccc(Cl)cc2)c2ccccc2C2=NCCN21` (stereo not drawn) [Mazindol], the adverse side effects is given as “dry mouth, constipation, stomach discomfort and nausea/vomiting”.
For `CCCCCCCCCCC[C@@H](C[C@@H]1OC(=O)[C@H]1CCCCCC)OC(=O)[C@H](CC(C)C)NC=O` [Xenical], the adverse side effects is given as “fatty stools, increased stool frequency, loose stools, diarrhea and abdominal pain”.
